Where two headings read alike, the source gives them in different places.
System: M17_3SYN cells
Assay: Paraquat-induced cytotoxicity (LDH) in α-synuclein over-expressing M17_3SYN neuroblastoma cells
Assay type: cell-based, human
Conditions: toxicity inhibition (LDH) in M17_3SYN cells challenged with 6 mM paraquat, 2 days, read-out: SYN EC50
Text: A α-synuclein expression plasmid was constructed by subcloning the NcoI/XhoI fragment from 212T-SYN(WT) (Griffioen et al., Biochem Biophys Acta (2006) 1762(3):312-318) containing the cDNA of human wild type α-synuclein correspondingly into a standard mammalian expression vector pcDNA3.1 resulting in plasmid pcDNA3.1-SYNwt. Plasmids pcDNA3.1 and pcDNA3.1-SYNwt were transfected into human neuroblastoma cells (BE-M17; ATCC No. CRL-2267™) using lipofectamine reagent and subsequently, independent clonal cell lines with the plasmids stably integrated into the genome were selected by antibiotic resistance selection (Geneticin (G418)), resulting in cell lines M17.pcDNA3 and M17_3SYN. Overexpression of α-synuclein in the M17_3SYN cell line was confirmed by Western blot analysis.
Due to the high levels of α-synuclein, M17_3SYN cells were sensitive to paraquat, a well-known risk factor Parkinson's disease and of synuclein-dependent neuronal degeneration. Cytotoxicity of cells was measured by quantification of lactate dehydrogenase (LDH) levels. In dead cells, LDH leaked out of the cells into the medium due to a loss of plasma-membrane integrity.
[…], primary pre-cultures of M17.pcDNA3 (as possible control) and M17_3SYN cells were prepared, starting from a stock culture, at a density of 20.000-40.000 cells/cm2 in culture medium (Opti-MEM® Reduced Serum Medium with Phenol Red (Invitrogen, Cat. 31985-047) supplemented with 10% FCS, 1 mM sodium pyruvate, 1×NEAA, 500 μg/ml G418 and 0.5×antibiotic/antimycotic (ABAM)). 3 days later these primary pre-cultures were used as a starting point to make secondary pre-cultures at a density of 50.000-100.000 cells/cm^2. At the day of the experiment these secondary precultures were diluted to ˜0.5·10^6 cells/ml in detection medium (Opti-MEM® Reduced-Serum Medium without Phenol Red (Invitrogen, Cat. 11085-021) supplemented with 10% FCS, 1 mM sodium pyruvate, 1×NEAA, 500 μg/ml G418 and 0.5×ABAM) and 60 μL of this suspension was dispensed per well into a 96-well microtiter plate. After 3 hours of incubation at 37° C./5% CO2 an equal volume of detection medium containing a final concentration of 6 mM Paraquat was added and subsequently incubated for 2 days at 37° C./5% CO2. Then LDH activity was determined using the Promega Cytotox 96 Non-Radioactive cytotoxicity assay (Promega, Cat. G1780), according to the manufacturer's instructions. Cytotoxicity was defined as the ratio of LDH relative to the total LDH in the cells and supernatant.
The assay described above using the M17_3SYN cell line allowed screening compounds for their ability to decrease cytotoxicity in PQ-challenged cells. Compounds of the invention were tested for their ability to decrease toxicity at different concentrations, ranging from low non-effective concentrations to high effective concentrations. Afterwards, a dose-dependent inhibition curve was used to calculate the EC50. A compound was considered to be active in this test when it inhibited toxicity by more than 20% relative to untreated M17_3SYN cells at a concentration of 10 μM or lower.

[1] = Homo sapiens, Neuroblastoma cell, 48 h

Structure (SMILES) | EC50 [1] | EC50
Cc1ccc(-c2noc(N3CCN(S(=O)(=O)c4ccc(C(F)(F)F)cc4)CC3)n2)cc1 [Cmpd016, 3-(p-Tolyl)-5-(4-((4-(trifluoromethyl)phenyl)sulfonyl)piperazin-1-yl)-1,2,4-oxadiazole] | 9 nM | –
COc1ccc(S(=O)(=O)N2CCN(c3nc(Cc4ccccc4)no3)CC2)cc1 [Cmpd037, 1-(3-Benzyl-[1,2,4]oxadiazol-5-yl)-4-(4-methoxy-benzenesulfonyl)-piperazine] | 3 nM | –
CCOc1ccc(S(=O)(=O)N2CCN(c3nc(Cc4ccccc4)no3)CC2)cc1 [Cmpd038, 1-(3-Benzyl-[1,2,4]oxadiazol-5-yl)-4-(4-ethoxy-benzenesulfonyl)-piperazine] | 13 nM | –
O=S(=O)(c1ccc(OC(F)F)cc1)N1CCN(c2nc(Cc3ccccc3)no2)CC1 [Cmpd039, 1-(3-Benzyl-[1,2,4]oxadiazol-5-yl)-4-(4-difluoromethoxy-benzenesulfonyl)-piperazine] | 11 nM | –
CCC(c1ccccc1)c1noc(N2CCN(S(=O)(=O)c3ccc(OC)cc3)CC2)n1 (stereo not drawn) [Cmpd044, 5-(4-((4-Methoxyphenyl)sulfonyl)piperazin-1-yl)-3-(1-phenylpropyl)-1,2,4-oxadiazole] | 15 nM | –
CCOc1ccc(S(=O)(=O)N2CCN(c3nc(C(CC)c4ccccc4)no3)CC2)cc1 (stereo not drawn) [Cmpd045, 1-(4-Ethoxy-benzenesulfonyl)-4-[3-(1-phenyl-propyl)-[1,2,4]oxadiazol-5-yl]-piperazine] | 18 nM | –
CCC(c1ccccc1)c1noc(N2CCN(S(=O)(=O)c3ccc(OC(F)F)cc3)CC2)n1 (stereo not drawn) [Cmpd046, 1-(4-Difluoromethoxy-benzenesulfonyl)-4-[3-(1-phenyl-propyl)-[1,2,4]oxadiazol-5-yl]-piperazine] | 59 nM | –
CC[C@@H](c1ccccc1)c1noc(N2CCN(S(=O)(=O)c3ccc(OC)cc3)CC2)n1 [Cmpd050, 1-(4-Methoxy-benzenesulfonyl)-4-[3-((S)-1-phenyl-propyl)-[1,2,4]oxadiazol-5-yl]-piperazine] | 68 nM | –
CC[C@H](c1ccccc1)c1noc(N2CCN(S(=O)(=O)c3ccc(OC)cc3)CC2)n1 [Cmpd051, 1-(4-Methoxy-benzenesulfonyl)-4-[3-((R)-1-phenyl-propyl)-[1,2,4]oxadiazol-5-yl]-piperazine] | 46 nM | –
COc1ccc(S(=O)(=O)N2CCN(c3nc(Cc4ccc(Cl)cc4)no3)CC2)cc1 [Cmpd052, 1-[3-(4-Chloro-benzyl)-[1,2,4]oxadiazol-5-yl]-4-(4-methoxy-benzenesulfonyl)-piperazine] | 24 nM | –
CCOc1ccc(S(=O)(=O)N2CCN(c3nc(Cc4ccc(Cl)cc4)no3)CC2)cc1 [Cmpd053, 1-[3-(4-Chloro-benzyl)-[1,2,4]oxadiazol-5-yl]-4-(4-ethoxy-benzenesulfonyl)-piperazine] | 31 nM | –
O=S(=O)(c1ccc(OC(F)F)cc1)N1CCN(c2nc(Cc3ccc(Cl)cc3)no2)CC1 [Cmpd054, 1-[3-(4-Chloro-benzyl)-[1,2,4]oxadiazol-5-yl]-4-(4-difluoromethoxy-benzenesulfonyl)-piperazine] | 19 nM | –
COc1ccc(S(=O)(=O)N2CCN(c3nc(Cc4cccc(Cl)c4)no3)CC2)cc1 [Cmpd072, 1-[3-(3-Chloro-benzyl)-[1,2,4]oxadiazol-5-yl]-4-(4-methoxy-benzenesulfonyl)-piperazine] | 3 nM | –
CCOc1ccc(S(=O)(=O)N2CCN(c3nc(Cc4cccc(Cl)c4)no3)CC2)cc1 [Cmpd073, 1-[3-(3-Chloro-benzyl)-[1,2,4]oxadiazol-5-yl]-4-(4-ethoxy-benzenesulfonyl)-piperazine] | 33 nM | –
O=S(=O)(c1ccc(OC(F)F)cc1)N1CCN(c2nc(Cc3cccc(Cl)c3)no2)CC1 [Cmpd074, 1-[3-(3-Chloro-benzyl)-[1,2,4]oxadiazol-5-yl]-4-(4-difluoromethoxy-benzenesulfonyl)-piperazine] | 10 nM | –
O=c1[nH]c2cc(S(=O)(=O)N3CCN(c4nc(Cc5cccc(Cl)c5)no4)CC3)ccc2o1 [Cmpd077, 5-{4-[3-(3-Chloro-benzyl)-[1,2,4]oxadiazol-5-yl]-piperazine-1-sulfonyl}-3H-benzooxazol-2-one] | 139 nM | –
COc1ccc(S(=O)(=O)N2CCN(c3nc(Cc4cccc(F)c4)no3)CC2)cc1 [Cmpd084, 1-[3-(3-Fluoro-benzyl)-[1,2,4]oxadiazol-5-yl]-4-(4-methoxy-benzenesulfonyl)-piperazine] | 5 nM | –
O=S(=O)(c1ccc(F)cc1)N1CCN(c2nc(Cc3cccc(F)c3)no2)CC1 [Cmpd085, 1-(4-Fluoro-benzenesulfonyl)-4-[3-(3-fluoro-benzyl)-[1,2,4]oxadiazol-5-yl]-piperazine] | 250 nM | –
CC(=O)Nc1ccc(S(=O)(=O)N2CCN(c3nc(Cc4cccc(F)c4)no3)CC2)cc1 [Cmpd086, N-(4-{4-[3-(3-Fluoro-benzyl)-[1,2,4]oxadiazol-5-yl]-piperazine-1-sulfonyl}-phenyl)-acetamide] | 522 nM | –
O=S(=O)(c1ccc(OC(F)(F)F)cc1)N1CCN(c2nc(Cc3cccc(F)c3)no2)CC1 [Cmpd087, 1-[3-(3-Fluoro-benzyl)-[1,2,4]oxadiazol-5-yl]-4-(4-trifluoromethoxy-benzenesulfonyl)-piperazine] | 497 nM | –
O=S(=O)(c1cccc(C(F)(F)F)c1)N1CCN(c2nc(Cc3cccc(F)c3)no2)CC1 [Cmpd088, 1-[3-(3-Fluoro-benzyl)-[1,2,4]oxadiazol-5-yl]-4-(3-trifluoromethyl-benzenesulfonyl)-piperazine] | 1840 nM | –
CCOc1ccc(S(=O)(=O)N2CCN(c3nc(Cc4cccc(F)c4)no3)CC2)cc1 [Cmpd091, 1-(4-Ethoxy-benzenesulfonyl)-4-[3-(3-fluoro-benzyl)-[1,2,4]oxadiazol-5-yl]-piperazine] | 57 nM | –
O=S(=O)(c1ccc(OC(F)F)cc1)N1CCN(c2nc(Cc3cccc(F)c3)no2)CC1 [Cmpd092, 1-(4-Difluoromethoxy-benzenesulfonyl)-4-[3-(3-fluoro-benzyl)-[1,2,4]oxadiazol-5-yl]-piperazine] | 47 nM | –
CC(C)Oc1ccc(S(=O)(=O)N2CCN(c3nc(Cc4cccc(F)c4)no3)CC2)cc1 [Cmpd093, 1-[3-(3-Fluoro-benzyl)-[1,2,4]oxadiazol-5-yl]-4-(4-isopropoxy-benzenesulfonyl)-piperazine] | 326 nM | –
O=S(=O)(c1ccc2c(c1)CCO2)N1CCN(c2nc(Cc3cccc(F)c3)no2)CC1 [Cmpd095, 1-(2,3-Dihydro-benzofuran-5-sulfonyl)-4-[3-(3-fluoro-benzyl)-[1,2,4]oxadiazol-5-yl]-piperazine] | 89 nM | –
CC(C)Oc1ccc(S(=O)(=O)N2CCN(c3nc(Cc4cccc(F)c4)no3)CC2)cc1 [Cmpd096, 3-(3-Fluorobenzyl)-5-(4-((4-isopropoxyphenyl)sulfonyl)piperazin-1-yl)-1,2,4-oxadiazole] | – | 289 nM
COc1ccc(S(=O)(=O)N2CCN(c3nc(Cc4ccc(F)c(F)c4)no3)CC2)cc1 [Cmpd099, 1-[3-(3,4-Difluoro-benzyl)-[1,2,4]oxadiazol-5-yl]-4-(4-methoxy-benzenesulfonyl)-piperazine] | 16 nM | –
CCOc1ccc(S(=O)(=O)N2CCN(c3nc(Cc4ccc(F)c(F)c4)no3)CC2)cc1 [Cmpd100, 1-[3-(3,4-Difluoro-benzyl)-[1,2,4]oxadiazol-5-yl]-4-(4-ethoxy-benzenesulfonyl)-piperazine] | 130 nM | –
O=S(=O)(c1ccc(OC(F)F)cc1)N1CCN(c2nc(Cc3ccc(F)c(F)c3)no2)CC1 [Cmpd101, 1-[3-(3,4-Difluoro-benzyl)-[1,2,4]oxadiazol-5-yl]-4-(4-difluoromethoxy-benzenesulfonyl)-piperazine] | 50 nM | –
CC(C)(c1ccc(F)cc1)c1noc(N2CCN(S(=O)(=O)c3ccc(OC(F)F)cc3)CC2)n1 [Cmpd114, 1-(4-Difluoromethoxy-benzenesulfonyl)-4-{3-[1-(4-fluoro-phenyl)-1-methyl-ethyl]-[1,2,4]oxadiazol-5-yl}-piperazine] | 17 nM | –

From patent US10562869B2, “Oxadiazole compounds” (REMYND NV, priority 2014, dated 2020)
